Patent publication US20210292272A1, “Salts of Zuclomiphene” (Apotex Inc., priority 2020, published 2021)

Tests used:
[1] = PXRD study of crystalline form stability of uncapped samples in a 40° C./75% RH stability chamber; format: physicochemical; details: at least 4 weeks
Description: PXRD diffractograms were recorded on a Bruker-AXS D8 Discover powder X-ray diffractometer (Bruker-AXS, Karlsruhe, Germany). The X-rays were generated using an Incoatec Micro-focus X-ray source (IpSTube: Cu tube with λ=1.54060 Å) with a voltage of 50 kV and current of 1.00 mA, using a micro mask 0.3 mm plug-in pinhole microslit and a short UBC 45 mm long collimator with a 0.3 mm diameter. For each sample, one frame was collected using a still scan with a Pilatus 3R-100K-A area detector at the distance of 154.72 mm from the sample. Raw data were evaluated using the program DIFFRAC.EVA (Bruker-AXS, Karlsruhe, Germany).

[2] = Intrinsic dissolution rate (IDR) measurement, Wood apparatus; format: physicochemical; details: 900 mL distilled water, 37° C., 50 rpm
Description: Intrinsic dissolution rate (IDR) measurements were performed using a Wood apparatus (Pharma Test PT-DT8 instrument) having a bath temperature of 37° C. Samples were prepared by compressing 200-400 mg samples at 1.5 metric tons for 1 minute. A dissolution medium consisting of 900 mL distilled water, and rotation speed of 50 rpm, was used for each experiment.

[3] = tested on: Men with Prostate Cancer on Androgen Deprivation Therapy; details: 50 mg of zuclomiphene citrate, interim Phase 2 results; cited from earlier work

| Substance | change in the crystalline form (PXRD) [1] | IDR (intrinsic dissolution rate) [2] [mg min^−1 cm^−2] | moderate to severe hot flashes, change from baseline [3] |
| --- | --- | --- | --- |
| zuclomiphene L-malate [zuclomiphene L-malate Form APO-I] | no change in the crystalline form occurred | 3.75 | – |
| zuclomiphene L-tartrate [zuclomiphene L-tartrate Form APO-I] | no change in the crystalline form occurred | 2.37 | – |
| zuclomiphene citrate | – | – | statistically significant decrease |
| zuclomiphene fumarate [zuclomiphene fumarate Form APO-I] | no change in the crystalline form occurred | – | – |
| zuclomiphene phosphate [zuclomiphene phosphate Form APO-I] | no change in the crystalline form occurred | – | – |
| zuclomiphene succinate [zuclomiphene succinate Form APO-I] | no change in the crystalline form occurred | – | – |
| zuclomiphene sulphate [zuclomiphene sulphate Form APO-I] | no change in the crystalline form occurred | – | – |
| zuclomiphene tosylate [zuclomiphene tosylate Form APO-I] | no change in the crystalline form occurred | – | – |
